Test results reported in publication PMC9863764, “Roles of Human Liver Cytochrome P450 Enzymes in Tenatoprazole Metabolism” (Pharmaceutics, 2022).
Several values for one entry are separate records, joined by “and”; a condition that tells them apart may be missing. Equal values may be shown once.

What was measured:
Format in all cases: in vitro ADME
human CYP3A4 = biological target: T1, human CYP3A4 (Homo sapiens, UniProt P08684); assay: Steady-state kinetics of tenatoprazole oxidation by recombinant CYP3A4; settings: for kcat of product formation: substrate tenatoprazole (1–500 μM), recombinant CYP3A4 0.20 μM, 37 °C, 5 min, label = product formed
T1 construct: made in house; host or cells: Escherichia coli (membrane fractions)
Procedure: Pooled liver microsomes from human samples were obtained from ThermoFisher Scientific (Waltham, MA, USA). […] Membrane fractions expressing both P450 and CPR of E. coli were prepared as described previously and were used for the catalytic activity assays. […] The reaction was started by adding NGS and the incubation was continued for the indicated time at 37 °C. Incubation was then stopped by adding ice-chilled ethyl acetate (0.50 mL) and omeprazole (IS) was added to a final concentration of 20 μM. […] Phenomenex, Torrance, CA, USA). The products formed were analyzed by HPLC at […]. The HPLC profile of the authentic chemicals (i.e., tenatoprazole, tenatoprazole sulfide, and their metabolites) were used to identify the major metabolites of tenatoprazole and tenatoprazole sulfide produced by the recombinant P450s. […] The kinetic parameters (kcat and Km) were determined by using a Michaelis-Menten nonlinear regression analysis with GraphPad Prism (GraphPad Software, San Diego, CA, USA). To further characterize the nature of the metabolites, the reaction mixtures were additionally analyzed by a 6530 Quadrupole Time-of-Flight (QTOF) mass spectrometer (MS) (Agilent, Santa Clara, CA, USA) coupled with a 1290 Infinity ultra-performance liquid chromatography (UPLC) system (Agilent). […] The reaction was initiated by adding NGS at 37 °C. […] Then, the upper layer was transferred to a glass tube and dried under nitrogen stream. The residues were reconstituted in 0.30 mL acetonitrile, then 1 μL samples were injected into an LC-MS system. The analytical column was a Hypersil Gold C18 column (100 × 2.1 mm, 1.9 μm; ThermoFisher Scientific). […] A gradient program was used for HPLC separation, and the flow rate was 0.4 mL/min. […] The column and autosampler were kept at 35 °C and 4 °C, respectively, during analysis. Electrospray ionization was performed in the positive ion mode. The sheath gas flow rate was 8 L/min. The flow rate of drying gas was 12 L/min at 350 °C, and the nebulizer's temperature was set at 350 °C. The capillary voltage was 4500 V in the positive mode, and that of the fragmentor was 175 V. Data acquisition were done over a scan range from 50 m/z to 1000 m/z in the centroid mode. A reference compound (C18H18O6N3P3F24; [M+H]^+ = 922.0098) was used to correct all of the masses. Tandem mass spectrometry (MS/MS) data were acquired in profile mode via autoanalysis for structural characterization with 30 eV of the collision energy.

CYP1A2 = biological target: T2, CYP1A2 (Homo sapiens, UniProt P05177); assay: Tenatoprazole oxidation by recombinant CYP1A2; settings: substrate tenatoprazole 0.10 mM, 0.20 μM CYP1A2; no apparent formation
T2 construct: made in house; host or cells: Escherichia coli (membrane fractions)
T2 sequence (P05177 1-516): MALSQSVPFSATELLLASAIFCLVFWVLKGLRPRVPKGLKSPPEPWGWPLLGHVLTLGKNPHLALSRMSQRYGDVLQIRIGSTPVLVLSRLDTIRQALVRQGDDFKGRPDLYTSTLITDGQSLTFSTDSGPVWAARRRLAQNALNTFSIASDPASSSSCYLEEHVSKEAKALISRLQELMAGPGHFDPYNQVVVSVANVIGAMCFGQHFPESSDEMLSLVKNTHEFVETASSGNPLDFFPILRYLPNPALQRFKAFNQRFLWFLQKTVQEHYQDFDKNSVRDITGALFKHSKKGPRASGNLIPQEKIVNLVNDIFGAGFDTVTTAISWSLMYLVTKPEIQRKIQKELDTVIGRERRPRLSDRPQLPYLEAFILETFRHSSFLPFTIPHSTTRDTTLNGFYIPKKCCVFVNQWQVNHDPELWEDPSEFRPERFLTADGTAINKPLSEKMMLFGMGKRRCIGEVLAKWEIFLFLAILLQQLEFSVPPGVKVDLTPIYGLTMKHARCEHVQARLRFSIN
Procedure: (§1) Pooled liver microsomes from human samples were obtained from ThermoFisher Scientific (Waltham, MA, USA). Recombinant human P450s were heterologously expressed in Escherichia coli with a pCW vector containing human P450 cDNA (CYP 3A4, 2C9, 2C19, 1A2, 1B1, 2E1, 2D6, and 2A6) and rat NADPH-P450 reductase (CPR). Membrane fractions expressing both P450 and CPR of E. coli were prepared as described previously and were used for the catalytic activity assays.
(§2) The reaction mixture included 0.20 μM P450, 0.40 μM CPR, and tenatoprazole (0.10 mM) in 0.25 mL of 0.10 M potassium phosphate buffer (pH 7.4). The reaction was started by adding NGS and the incubation was continued for the indicated time at 37 °C. Incubation was then stopped by adding ice-chilled ethyl acetate (0.50 mL) and omeprazole (IS) was added to a final concentration of 20 μM. The mixtures were vortexed for 2 min, centrifuged at 1000× g for 20 min, and then the organic layer was taken for drying under nitrogen gas stream. The residues were dissolved in 180 μL of HPLC mobile phase and 30 μL was injected onto a Gemini C18 column (4.6 × 150 mm, 5 μm; Phenomenex, Torrance, CA, USA). The products formed were analyzed by HPLC at A302. The HPLC profile of the authentic chemicals (i.e., tenatoprazole, tenatoprazole sulfide, and their metabolites) were used to identify the major metabolites of tenatoprazole and tenatoprazole sulfide produced by the recombinant P450s.
(§3) Figure S6. HPLC analyses of the products derived from the oxidation of tenatoprazole catalyzed by recombinant human P450s. The reaction mixture included 0.20 μM P450, 0.40 μM CPR, and 0.10 mM tenatoprazole in 0.25 mL of potassium phosphate buffer (0.10 M, pH 7.4). The reaction was started by adding an NGS at 37 °C for 60 min. (A) CYP1A2; (B) CYP1B1; (C) CYP2A6; (D) CYP2C9; (E) CYP2D6; (F) CYP2E1. The arrows with solid and broken lines indicate the retention times of 5’-OH tenatoprazole (6.6 min) and 5’-OH tenatoprazole sulfide (8.4 min), respectively.
(§4) (1 picture or pasted object on this page, not shown here)

CYP2E1 = biological target: T3, CYP2E1 (Homo sapiens, UniProt P05181); assay: Tenatoprazole oxidation by recombinant CYP2E1; settings: substrate tenatoprazole 0.10 mM, 0.20 μM CYP2E1; no apparent formation
T3 construct: made in house; host or cells: Escherichia coli (membrane fractions)
Procedure: as §1, §2, §3, §4

T1 sequence (P08684 whole entry): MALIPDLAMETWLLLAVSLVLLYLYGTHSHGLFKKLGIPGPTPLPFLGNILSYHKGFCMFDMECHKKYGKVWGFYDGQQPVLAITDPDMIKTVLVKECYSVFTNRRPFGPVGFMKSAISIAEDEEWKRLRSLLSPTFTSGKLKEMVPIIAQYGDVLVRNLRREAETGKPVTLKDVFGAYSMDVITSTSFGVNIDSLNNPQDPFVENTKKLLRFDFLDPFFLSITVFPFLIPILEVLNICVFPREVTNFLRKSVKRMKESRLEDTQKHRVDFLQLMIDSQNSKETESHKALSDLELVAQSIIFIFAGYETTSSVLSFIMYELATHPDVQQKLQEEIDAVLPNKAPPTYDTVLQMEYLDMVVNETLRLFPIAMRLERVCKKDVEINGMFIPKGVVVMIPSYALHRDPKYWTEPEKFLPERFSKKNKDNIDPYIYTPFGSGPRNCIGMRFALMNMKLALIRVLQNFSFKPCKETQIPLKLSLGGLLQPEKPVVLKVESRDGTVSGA
T3 sequence (P05181 whole entry): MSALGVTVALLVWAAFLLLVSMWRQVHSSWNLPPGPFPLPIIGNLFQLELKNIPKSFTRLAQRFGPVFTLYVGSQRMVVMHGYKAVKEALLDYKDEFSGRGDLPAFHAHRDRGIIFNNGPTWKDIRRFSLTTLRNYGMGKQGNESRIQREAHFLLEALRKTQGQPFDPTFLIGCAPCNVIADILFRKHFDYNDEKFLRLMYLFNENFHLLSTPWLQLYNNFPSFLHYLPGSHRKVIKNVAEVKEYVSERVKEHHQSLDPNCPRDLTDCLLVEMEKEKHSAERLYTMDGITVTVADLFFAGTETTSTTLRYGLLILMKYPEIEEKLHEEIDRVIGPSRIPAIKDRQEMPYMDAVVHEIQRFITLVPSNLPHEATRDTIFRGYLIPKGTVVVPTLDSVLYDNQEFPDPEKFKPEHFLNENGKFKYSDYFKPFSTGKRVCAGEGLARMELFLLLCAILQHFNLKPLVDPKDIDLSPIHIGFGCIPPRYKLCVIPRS

| SMILES | fold higher Km of CYP3A4 than CYP2C19 (human CYP3A4; 5′-OH tenatoprazole formation from tenatoprazole) | kcat of product formation (human CYP3A4) | formation rate of metabolite (CYP1A2) | formation rate of metabolite (CYP2E1) |
| --- | --- | --- | --- | --- |
| COc1ccc2[nH]c([S+]([O-])Cc3ncc(CO)c(OC)c3C)nc2n1 (stereo not shown) [5′-OH tenatoprazole, 5′-hydroxy tenatoprazole] | 100 fold | 0.105 s⁻¹ and 0.105 ± 0.005 s⁻¹ | < 0.05 nmol product/min/nmol P450 | < 0.05 nmol product/min/nmol P450 |
| COc1ccc2[nH]c(S(=O)(=O)Cc3ncc(C)c(OC)c3C)nc2n1 [tenatoprazole sulfone] |  | 0.045 s⁻¹ and 0.045 ± 0.013 s⁻¹ | < 0.05 nmol product/min/nmol P450 | < 0.05 nmol product/min/nmol P450 |
